Earlier results as cited in patent US20190000850A1, “COMBINATION CANCER THERAPY” (The Regents of the University of California, priority 2015, published 2019).

Tests used:
cdc2 = cdc2 (Homo sapiens, UniProt P06493); conditions: cited from earlier work
Chk1 = biological target: T1, Chk1 (Homo sapiens, UniProt O14757); conditions: read-out: IC50 against primary target (Chk1); cited from earlier work
T1 sequence (O14757 1-476): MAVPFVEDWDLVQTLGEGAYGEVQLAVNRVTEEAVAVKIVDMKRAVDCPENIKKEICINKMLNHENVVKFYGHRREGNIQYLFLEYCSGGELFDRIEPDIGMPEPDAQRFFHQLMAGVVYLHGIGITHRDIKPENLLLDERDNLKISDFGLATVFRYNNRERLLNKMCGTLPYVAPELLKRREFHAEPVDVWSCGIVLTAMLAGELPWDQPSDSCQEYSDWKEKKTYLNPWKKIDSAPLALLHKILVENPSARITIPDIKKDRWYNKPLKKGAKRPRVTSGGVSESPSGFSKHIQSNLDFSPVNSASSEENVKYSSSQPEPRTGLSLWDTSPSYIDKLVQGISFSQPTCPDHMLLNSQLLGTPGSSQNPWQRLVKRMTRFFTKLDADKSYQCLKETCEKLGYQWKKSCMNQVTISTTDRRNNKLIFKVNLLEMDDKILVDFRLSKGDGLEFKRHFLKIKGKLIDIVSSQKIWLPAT

PKC = conditions: cited from earlier work
Chk2 = Chk2 (Homo sapiens, UniProt O96017); conditions: read-out: IC50 against Chk2; cited from earlier work
Sequence of Chk2 (O96017 whole entry, species assumed): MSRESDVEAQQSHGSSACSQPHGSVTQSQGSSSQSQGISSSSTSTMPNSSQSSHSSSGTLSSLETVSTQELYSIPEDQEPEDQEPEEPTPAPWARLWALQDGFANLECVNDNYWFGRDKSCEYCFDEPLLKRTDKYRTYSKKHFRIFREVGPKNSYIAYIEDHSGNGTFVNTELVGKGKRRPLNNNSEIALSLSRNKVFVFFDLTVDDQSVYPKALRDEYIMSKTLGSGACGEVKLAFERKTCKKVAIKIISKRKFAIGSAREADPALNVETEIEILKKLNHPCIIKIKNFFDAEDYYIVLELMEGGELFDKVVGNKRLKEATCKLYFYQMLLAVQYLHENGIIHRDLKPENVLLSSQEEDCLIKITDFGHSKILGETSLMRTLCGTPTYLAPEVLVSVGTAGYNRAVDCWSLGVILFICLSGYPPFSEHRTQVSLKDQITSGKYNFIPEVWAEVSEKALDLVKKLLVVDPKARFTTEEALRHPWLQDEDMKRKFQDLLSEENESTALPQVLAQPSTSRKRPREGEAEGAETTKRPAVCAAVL

Sequence of cdc2 (P06493 whole entry, species assumed): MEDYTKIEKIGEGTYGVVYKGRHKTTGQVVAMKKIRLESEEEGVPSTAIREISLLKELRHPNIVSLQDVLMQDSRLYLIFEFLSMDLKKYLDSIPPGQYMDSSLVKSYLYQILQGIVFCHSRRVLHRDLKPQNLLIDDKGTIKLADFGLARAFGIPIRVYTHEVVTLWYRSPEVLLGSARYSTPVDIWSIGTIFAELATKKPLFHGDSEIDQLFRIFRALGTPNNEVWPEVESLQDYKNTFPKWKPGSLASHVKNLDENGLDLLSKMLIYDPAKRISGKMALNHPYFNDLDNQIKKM
Sequence of cdc2 (P14635 whole entry partner, species assumed): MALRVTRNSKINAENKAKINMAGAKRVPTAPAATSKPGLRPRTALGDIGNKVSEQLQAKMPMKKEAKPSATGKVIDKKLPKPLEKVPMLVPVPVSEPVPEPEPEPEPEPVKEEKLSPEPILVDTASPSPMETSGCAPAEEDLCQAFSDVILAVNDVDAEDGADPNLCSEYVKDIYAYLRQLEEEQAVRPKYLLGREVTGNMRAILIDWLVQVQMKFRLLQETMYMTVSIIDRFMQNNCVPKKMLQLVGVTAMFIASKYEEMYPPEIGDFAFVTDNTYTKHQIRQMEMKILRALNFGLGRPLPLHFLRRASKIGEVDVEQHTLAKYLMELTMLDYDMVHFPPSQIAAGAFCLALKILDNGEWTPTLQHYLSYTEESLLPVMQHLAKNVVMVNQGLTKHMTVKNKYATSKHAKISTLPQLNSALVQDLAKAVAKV

| Structure (SMILES) | IC50 (cdc2) [nM] | IC50 (Chk1) [nM] | IC50 (PKC) [nM] | IC50 (Chk2) [nM] |
| --- | --- | --- | --- | --- |
| O=C1NC(=O)c2c1c1c3ccccc3n3c1c1c2c2ccccc2n1C1CCC3O1 [SB-218078] | 250 | 15 | 1000 |  |
| CN(C)CC(C)(C)COc1ccc2[nH]c(-c3cc(NC(=O)c4cnn(Cc5ccccc5)c4)c[nH]c3=O)cc2c1 [V158411] |  | 3.5 |  | 2.5 |
